According to patent US20130315848A1, “COSMETIC COMPOSITION FOR SKIN WHITENING COMPRISING RESVERATROL” (DSM IP ASSETS B.V., priority 2010, published 2013):

Assay: Analysis of radioactivity in the formulations: trans/cis isomer content
Type: physicochemical
Details: 14C radioactivity in formulation extracts
Description: The different degree of isomerization could be explained by the extent of light exposure during the preparation of the cream and/or during the extraction procedure in the course of the series of experiments.

Substance: [phenyl-^14C]-resveratrol [^14C-Resveratrol stock solution]
- Resveratrol cis isomer: 0%
- Resveratrol trans-isomer: 100%
